What was measured:
[1] = tested on: α-D-galactosidase isozyme; test: Substrate specificity with PNP and 4-MU conjugates; format: biochemical, Coffea canephora; settings: pH 6.0
From the text: Analytical procedures: Protein concentration was quantitated by the method of Bradford using bovine serum albumin (BSA) as a standard (9). […] One unit of activity was defined as 1.0 μmole of substrate hydrolyzed per minute.

[2] = tested on: α-D-galactosidase isozyme; test: Km determination by varying the substrate concentration; format: biochemical, Coffea canephora; settings: 50 mM Na citrate + 1 mg/ml BSA, pH 6.0; mean, S.D.=0.09, N=3
Procedure: The pH optimum was determined by incubating aliquots of the enzyme in 40 mM Na citrate +40 mN Na H2 PO4 +1 mg/ml BSA+2.5 mM PNP-α-D-galactopyranoside, pH =2.0 to 8.0. The ionic strength optimum was determined by incubating aliquots of the enzyme in 5.0 mM Na citrate +1 mg/ml BSA +2.5 mM PNP α-D-galactopyranoside +0 to 1.0M Na Cl, pH =6.0. The Km for PNP-α-D-galactopyranoside was determined by varying the substrate concentration in 50 mM Na citrate +1 mg/ml BSA, pH =6.0. The native molecular weight of the isozyme was determined by applying a concentrated portion of the enzyme to a 1.5×45 cm Sephacryl S-200 column equilibrated in 25 mM Na citrate +200 mM NaCl, pH=6.0.

[3] = PNP conjugates 2.5 mM, % of activity on PNP-α-D-galactopyranoside
[4] = 4-MU substrates, % of activity on 4-MU-α-D-galactopyranoside

C[C@@H]1O[C@@H](Oc2ccc([N+](=O)[O-])cc2)[C@@H](O)[C@H](O)[C@@H]1O [PNP-α-L-fucopyranoside]
RELATIVE ACTIVITY [1, 3]: < 0.06%

CC(=O)N[C@H]1[C@H](Oc2ccc([N+](=O)[O-])cc2)O[C@H](CO)[C@@H](O)[C@@H]1O [PNP-N-acetyl-β-D-glucosaminide]
RELATIVE ACTIVITY [1, 3]: < 0.06%

O=[N+]([O-])c1ccc(O[C@@H]2OC[C@H](O)[C@H](O)[C@H]2O)cc1 [PNP-α-L-arabinopyranoside]
RELATIVE ACTIVITY [1, 3]: < 0.06%

C[C@@H]1O[C@H](Oc2ccc([N+](=O)[O-])cc2)[C@@H](O)[C@H](O)[C@@H]1O [PNP-β-L-fucopyranoside]
RELATIVE ACTIVITY [1, 3]: < 0.06%

CC(=O)N[C@H]1[C@@H](Oc2ccc([N+](=O)[O-])cc2)O[C@H](CO)[C@H](O)[C@@H]1O [PNP-N-acetyl-α-D-galactosaminide]
RELATIVE ACTIVITY [1, 3]: < 0.06%

O=[N+]([O-])c1ccc(O[C@H]2O[C@H](CO)[C@H](O)[C@H](O)[C@H]2O)cc1 [PNP-α-D-galactopyranoside]
Km [2]: 260 µM | RELATIVE ACTIVITY [1, 3]: 100.00%

O=[N+]([O-])c1ccc(O[C@@H]2O[C@H](CO)[C@@H](O)[C@H](O)[C@H]2O)cc1 [PNP-β-D-glucopyranoside]
RELATIVE ACTIVITY [1, 3]: < 0.06%

CC(=O)NC1C(O)CC(Oc2ccc3c(C)cc(=O)oc3c2)(C(=O)O)OC1C(O)C(O)CO (stereo not drawn) [4-MU-N-acetyl-α-neuraminic acid]
RELATIVE ACTIVITY [1, 4]: < 0.01%

O=[N+]([O-])c1ccc(O[C@H]2O[C@H](CO)[C@@H](O)[C@H](O)[C@H]2O)cc1 [PNP-α-D-glucopyranoside]
RELATIVE ACTIVITY [1, 3]: < 0.06%

CC(=O)N[C@H]1[C@H](Oc2ccc([N+](=O)[O-])cc2)O[C@H](CO)[C@H](O)[C@@H]1O [PNP-N-acetyl-β-D-galactosaminide]
RELATIVE ACTIVITY [1, 3]: < 0.06%

Cc1cc(=O)oc2cc(O[C@H]3O[C@H](CO)[C@H](O)[C@H](O)[C@H]3O)ccc12 [4-MU-α-D-galactopyranoside]
RELATIVE ACTIVITY [1, 4]: 100.00%

O=[N+]([O-])c1ccc(O[C@@H]2O[C@H](CO)[C@H](O)[C@H](O)[C@H]2O)cc1 [PNP-β-D-galactopyranoside]
RELATIVE ACTIVITY [1, 3]: < 0.06%

CC(=O)N[C@H]1[C@@H](Oc2ccc([N+](=O)[O-])cc2)O[C@H](CO)[C@@H](O)[C@@H]1O [PNP-N-acetyl-α-D-glucosaminide]
RELATIVE ACTIVITY [1, 3]: < 0.06%

— patent publication US5512471A, “Process for purifying an α-D-galactosidase isozyme from Coffea beans” (The Curators of the University of Missouri, priority 1992, dated 1996)
